# Laboratory results published in patent US20080161232A1, “C5a Receptor Antagonist” (JERINI AG, priority 2005, published 2008).
# Starred links: 1 amine or outer side, 2 acyl side, 3 side chain; linkers in the order of their positions; H or OH if unused. Positions of bridges follow the written chain, without caps; N, C: chain ends. Non-standard residues stand in square brackets, D forms with d. Residues, ends and D or L forms follow the SMILES beside them. Groups on a side chain read outwards from the residue. *: point of attachment. Ala(piperidin-4-yl) = O=C([C@H](CC1CCN([*:3])CC1)N[*:1])[*:2]; X2 = O=C([C@H](CCCN(C1=NCCN1)C1=NCCN1)N[*:1])[*:2]; Orn(2-imidazolinyl) = N[C@@H](CCCNC1=NCCN1)C(=O)O; X6 = O=C([C@H](C[S+]([O-])Cc1cccnc1)N[*:1])[*:2]; Phe(3,4-Cl2) = N[C@@H](Cc1ccc(Cl)c(Cl)c1)C(=O)O; Dihydroorotyl(S) = O=C1C[C@@H](C(=O)*)NC(=O)N1; Decanoyl(3,6,9-trioxa) = COCCOCCOCC(=O)*; Phe(3-Cl) = N[C@@H](Cc1cccc(Cl)c1)C(=O)O; Phe(3-F) = N[C@@H](Cc1cccc(F)c1)C(=O)O; Phe(4-F) = N[C@@H](Cc1ccc(F)cc1)C(=O)O; X11 = N=C(N)N[C@@H](Cc1ccccc1)C(=O)*; Bta = N[C@@H](Cc1csc2ccccc12)C(=O)O; cisHyp = O=C(O)[C@@H]1C[C@H](O)CN1; Hyp = O=C(O)[C@@H]1C[C@@H](O)CN1; d(hLeu) = CC(C)CC[C@@H](N)C(=O)O; dCha = N[C@H](CC1CCCCC1)C(=O)O; NHCH2CH(OH)CH2OH = OCC(O)CN*; Phg = N[C@H](C(=O)O)c1ccccc1; NMeS = CN[C@@H](CO)C(=O)O; Pip = O=C(O)[C@@H]1CCCCN1; X23 = O=C(CC(O)c1ccccc1)*; Nle = CCCC[C@H](N)C(=O)O; Orn = NCCC[C@H](N)C(=O)O; Aze = O=C(O)[C@@H]1CCN1; Fluoroacetyl = O=C(CF)*; CO = O=C([*:1])[*:2]; tBu = CC(C)(C)*
# Target: T1, human C5aR(CD88) (Homo sapiens, UniProt P21730)
# T1 construct: expressed in transfected cells; host or cells: rat basophilic leukemia cells (RBL)
# T1 sequence (P21730 1-350): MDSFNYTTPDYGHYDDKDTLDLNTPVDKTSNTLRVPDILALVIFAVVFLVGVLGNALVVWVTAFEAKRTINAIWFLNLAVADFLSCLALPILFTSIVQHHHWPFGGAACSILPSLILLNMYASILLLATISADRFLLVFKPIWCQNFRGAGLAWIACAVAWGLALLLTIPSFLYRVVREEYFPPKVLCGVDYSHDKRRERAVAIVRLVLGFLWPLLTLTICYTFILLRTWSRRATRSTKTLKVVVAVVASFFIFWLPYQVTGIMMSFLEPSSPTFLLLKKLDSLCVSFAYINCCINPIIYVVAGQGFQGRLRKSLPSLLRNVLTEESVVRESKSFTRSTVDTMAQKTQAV
# Test: Determination of the IC50 value in an enzyme release assay (functional assay, antagonistic activity)
# Type: cell-based
# Details: activity (group), antagonistic activity; IC50 group in enzyme release assay, RBL cells expressing human C5aR(CD88)
row,SMILES,IC50 [nM]
1,"NCCC[C@H](NC(=O)[C@H](Cc1ccccc1)NC(=O)CF)C(=O)N1CCC[C@H]1C(=O)N[C@H](CC1CCCCC1)C(=O)N[C@@H](Cc1csc2ccccc12)C(=O)N[C@@H](Cc1ccccc1)C(N)=O [Compound 142, FH2C—CO-Phe-Orn-Pro-cha-Bta-Phe-NH2] (Fluoroacetyl-F[Orn]P[dCha][Bta]F-NH2)",20 to 50

# Same assay, conditions: antagonistic activity; IC50 group in enzyme release assay, RBL cells expressing human C5aR(CD88); read-out: activity (group)
row,SMILES,IC50 [nM]
1,"NCCC[C@H](NC(=O)[C@@H](N)Cc1ccccc1)C(=O)N1CCC[C@H]1C(=O)N[C@H](CC1CCCCC1)C(=O)N[C@@H](Cc1c[nH]c2ccccc12)C(=O)N[C@@H](Cc1ccccc1)C(N)=O [Compound 74, H-Phe-Orn-Pro-cha-Trp-Phe-NH2] (H-F[Orn]P[dCha]WF-NH2)",50 to 200
2,"N=C(N)N[C@@H](Cc1ccccc1)C(=O)N[C@@H](CCCN)C(=O)N1CCC[C@H]1C(=O)N[C@H](CC1CCCCC1)C(=O)N[C@@H](Cc1csc2ccccc12)C(=O)N[C@@H](Cc1ccccc1)C(N)=O [Compound 339, Fhu-Phe-Orn-Pro-cha-Bta-Phe-NH2] (X11-[Orn]P[dCha][Bta]F-NH2)",50 to 200
3,"CC(=O)N[C@@H](Cc1ccccc1)C(=O)N[C@@H](CCCN)C(=O)N1CCC[C@H]1C(=O)N[C@H](CSC(C)(C)C)C(=O)N[C@@H](Cc1ccc(Cl)c(Cl)c1)C(=O)N[C@@H](Cc1ccccc1)C(N)=O [Compound 264, Ac-Phe-Orn-Pro-ctb-Eaa-Phe-NH2] (Ac-F[Orn]P[dC](tBu)[Phe(3,4-Cl2)]F-NH2)",20 to 50
4,"CC(=O)N[C@@H](Cc1ccccc1)C(=O)N[C@@H](CCCN)C(=O)N1C[C@@H](O)C[C@H]1C(=O)N[C@H](CC1CCCCC1)C(=O)N[C@@H](Cc1csc2ccccc12)C(=O)N[C@@H](Cc1ccccc1)C(N)=O [Compound 235, Ac-Phe-Orn-Chy-cha-Bta-Phe-NH2] (Ac-F[Orn][cisHyp][dCha][Bta]F-NH2)",50 to 200
5,CC(=O)N[C@@H](Cc1ccccc1)C(=O)N[C@H]1CCCNC(=O)[C@H](C[S+]([O-])Cc2cccnc2)NC(=O)[C@H](Cc2c[nH]c3ccccc23)NC(=O)[C@@H](CC2CCCCC2)NC(=O)[C@@H]2CCCN2C1=O (stereo partly shown) [compound 16] (Ac-F[Orn]P[dCha]W[X6]; lactam 2-C),200 to 2000
6,"CC(=O)N[C@@H](Cc1c[nH]cn1)C(=O)N[C@@H](Cc1ccccc1)C(=O)N[C@@H](CCCN)C(=O)N1CC[C@H]1C(=O)N[C@H](CC1CCCCC1)C(=O)N[C@@H](Cc1csc2ccccc12)C(=O)N[C@@H](Cc1ccccc1)C(N)=O [Compound 138, Ac-His-Phe-Orn-Aze-cha-Bta-Phe-NH2] (Ac-HF[Orn][Aze][dCha][Bta]F-NH2)",50 to 200
7,"CC(=O)N[C@@H](Cc1ccccc1)C(=O)N[C@@H](CCCN)C(=O)N1CCCC[C@H]1C(=O)N[C@H](CC1CCCCC1)C(=O)N[C@@H](Cc1c[nH]c2ccccc12)C(=O)N[C@@H](Cc1ccccc1)C(=O)O [Compound 115, Ac-Phe-Orn-Pip-cha-Trp-Phe-OH] (Ac-F[Orn][Pip][dCha]WF-OH)",200 to 2000
8,"CC(=O)N[C@@H](CCCCN)C(=O)N[C@@H](Cc1ccccc1)C(=O)N[C@@H](CCCN)C(=O)N1CC[C@H]1C(=O)N[C@H](CC1CCCCC1)C(=O)N[C@@H](Cc1csc2ccccc12)C(=O)N[C@@H](Cc1ccccc1)C(N)=O [Compound 135, Ac-Lys-Phe-Orn-Aze-cha-Bta-Phe-NH2] (Ac-KF[Orn][Aze][dCha][Bta]F-NH2)",10 to 20
9,"CC(=O)N[C@@H](Cc1cccc(F)c1)C(=O)N[C@@H](CCCN)C(=O)N1CCC[C@H]1C(=O)N[C@H](CCC(C)C)C(=O)N[C@@H](Cc1cccc(Cl)c1)C(=O)N[C@@H](Cc1cccc(F)c1)C(N)=O [Compound 163, Ac-Mff-Orn-Pro-hle-Mcf-Mff-NH2] (Ac-[Phe(3-F)][Orn]P[d(hLeu)][Phe(3-Cl)][Phe(3-F)]-NH2)",50 to 200
10,"CC(C)CC[C@H]1NC(=O)[C@H](CO)N(C)C(=O)[C@@H](NC(=O)[C@@H](N)Cc2ccccc2)CCCNC(=O)[C@H](Cc2ccccc2)NC(=O)[C@H](Cc2ccc(F)cc2)NC1=O [Compound 373, H-Phe-[Orn-NMS-hle-Pff-Phe]] (H-F[Orn][NMeS][d(hLeu)][Phe(4-F)]F; lactam 2-C)",50 to 200
11,"CCCC[C@@H]1NC(=O)[C@H](Cc2ccc(F)cc2)NC(=O)[C@@H](CCC(C)C)NC(=O)[C@@H]2C[C@@H](O)CN2C(=O)[C@@H](NC(=O)[C@H](Cc2ccccc2)NC(=O)[C@@H]2CC(=O)NC(=O)N2)CCCNC1=O [Compound 347, Hoo-Phe-[Orn-Hyp-hle-Pff-Nle]] ({Dihydroorotyl(S)}-F[Orn][Hyp][d(hLeu)][Phe(4-F)][Nle]; lactam 2-C)",50 to 200
12,"CCCC[C@@H]1NC(=O)[C@H](Cc2ccc(F)cc2)NC(=O)[C@@H](CCC(C)C)NC(=O)[C@@H]2C[C@@H](O)CN2C(=O)[C@@H](NC(=O)[C@H](Cc2ccccc2)NC(C)=O)CCCNC1=O [Compound 179, Ac-Phe-[Orn-Hyp-hle-Pff-Nle]] (Ac-F[Orn][Hyp][d(hLeu)][Phe(4-F)][Nle]; lactam 2-C)",50 to 200
13,"CCCC[C@@H]1NC(=O)[C@H](Cc2c[nH]c3ccccc23)NC(=O)[C@@H](CC2CCCCC2)NC(=O)[C@@H]2CCN2C(=O)[C@@H](NC(=O)[C@H](Cc2ccccc2)NC(C)=O)CCCNC1=O [Compound 174, Ac-Phe-[Orn-Aze-cha-Trp-Nle]] (Ac-F[Orn][Aze][dCha]W[Nle]; lactam 2-C)",50 to 200
14,"CC(=O)N[C@@H](Cc1ccccc1)C(=O)N[C@H]1CCCNC(=O)[C@H](Cc2ccccc2)NC(=O)[C@H](Cc2ccc(F)cc2)NC(=O)[C@@H](CCC(C)C)NC(=O)[C@@H]2C[C@@H](O)CN2C1=O [Compound 180, Ac-Phe-[Orn-Hyp-hle-Pff-Phe]] (Ac-F[Orn][Hyp][d(hLeu)][Phe(4-F)]F; lactam 2-C)",50 to 200
15,"CC(C)CC[C@H]1NC(=O)[C@@H]2C[C@@H](O)CN2C(=O)[C@@H](NC(=O)[C@@H](N)Cc2ccccc2)CCCNC(=O)[C@H](CC(C)C)NC(=O)[C@H](Cc2ccc(F)cc2)NC1=O [Compound 364, H-Phe-[Orn-Hyp-hle-Pff-Leu]] (H-F[Orn][Hyp][d(hLeu)][Phe(4-F)]L; lactam 2-C)",50 to 200
16,"CC(=O)N[C@@H](Cc1ccccc1)C(=O)N[C@@H](CCCN(C1=NCCN1)C1=NCCN1)C(=O)N1CC[C@H]1C(=O)N[C@H](CC1CCCCC1)C(=O)N[C@@H](Cc1csc2ccccc12)C(=O)N[C@@H](Cc1ccccc1)C(N)=O [Compound 223, Ac-Phe-Fcp-Aze-cha-Bta-Phe-NH2] (Ac-F[X2][Aze][dCha][Bta]F-NH2)",20 to 50
17,"CCCC[C@@H]1NC(=O)[C@H](Cc2ccc(F)cc2)NC(=O)[C@@H](CCC(C)C)NC(=O)[C@@H]2CCCN2C(=O)[C@@H](NC(=O)[C@H](Cc2ccccc2)NC(=N)N)CCCNC1=O [Compound 338, Fhu-Phe-[Orn-Pro-hle-Pff-Nle]] (X11-[Orn]P[d(hLeu)][Phe(4-F)][Nle]; lactam 1-C)",50 to 200
18,CC(=O)N[C@@H](Cc1ccccc1)C(=O)N[C@H]1CCCNC(=O)[C@H](CC2CCNCC2)NC(=O)[C@H](Cc2c[nH]c3ccccc23)NC(=O)[C@@H](CC2CCCCC2)NC(=O)[C@@H]2CCCN2C1=O [compound 27] (Ac-F[Orn]P[dCha]W[Ala(piperidin-4-yl)]; lactam 2-C),> 2000
19,"CCCC[C@@H]1NC(=O)[C@H](Cc2c[nH]c3ccccc23)NC(=O)[C@@H](CC2CCCCC2)NC(=O)[C@@H]2CCCN2C(=O)[C@@H](NC(=O)CC(O)c2ccccc2)CCCNC1=O (stereo partly drawn) [Compound 59, Ph-CH(OH)—CH2—CO-[Orn-Pro-cha-Trp-Nle]] (X23-[Orn]P[dCha]W[Nle]; lactam 1-C)",20 to 50
20,"CC(=O)N[C@@H](Cc1ccccc1)C(=O)N[C@@H](CCCNC1=NCCN1)C(=O)N1CCC[C@H]1C(=O)N[C@H](CCC(C)C)C(=O)N[C@@H](Cc1csc2ccccc12)C(=O)N[C@@H](Cc1ccccc1)C(N)=O [Compound 226, Ac-Phe-Ffa-Pro-hle-Bta-Phe-NH2] (Ac-F[Orn(2-imidazolinyl)]P[d(hLeu)][Bta]F-NH2)",10 to 20
21,"CC(=O)N[C@H](C(=O)N[C@@H](CCCN)C(=O)N1CCC[C@H]1C(=O)N[C@H](CC1CCCCC1)C(=O)N[C@@H](Cc1csc2ccccc12)C(=O)N[C@@H](Cc1ccccc1)C(N)=O)c1ccccc1 [Compound 126, Ac-Phg-Orn-Pro-cha-Bta-Phe-NH2] (Ac-[Phg][Orn]P[dCha][Bta]F-NH2)",50 to 200
22,CC(=O)N[C@@H](Cc1ccccc1)C(=O)N[C@H]1CCCNC(=O)[C@H](C)NC(=O)[C@H](Cc2c[nH]c3ccccc23)NC(=O)[C@@H](CC2CCCCC2)NC(=O)[C@@H]2CCCN2C1=O [Compound 39] (Ac-F[Orn]P[dCha]WA; lactam 2-C),> 2000
23,"CCCC[C@@H]1NC(=O)[C@H](Cc2c[nH]c3ccccc23)NC(=O)[C@@H](CC2CCCCC2)NC(=O)[C@@H]2C[C@@H](OC(=O)NCC(O)CO)CN2C(=O)[C@@H](NC(=O)[C@H](Cc2ccccc2)NC(C)=O)CCCNC1=O (stereo partly shown) [Compound 6, Ac-Phe-[Orn-Hyp(CONH—CH2CH(OH)—CH2OH)-cha-Trp-Nle]] (Ac-F[Orn][Hyp]([CO-NHCH2CH(OH)CH2OH])[dCha]W[Nle]; lactam 2-C)",50 to 200

# Same assay, conditions: functional assay of example 11; noteworthy = IC50 less than 200 nM
row,SMILES,inhibitory activity (in words)
1,"COCCOCCOCC(=O)O[C@@H]1C[C@H]2C(=O)N[C@H](CC3CCCCC3)C(=O)N[C@@H](Cc3c[nH]c4ccccc34)C(=O)N[C@@H](Cc3ccccc3)C(=O)NCCC[C@H](NC(=O)[C@H](Cc3ccccc3)NC(C)=O)C(=O)N2C1 [Ac-Phe-[Orn-Hyp(COCH2OCH2CH2OCH2CH2OCH3)-cha-Trp-Phe]] (Ac-F[Orn][Hyp](Decanoyl(3,6,9-trioxa))[dCha]WF; lactam 2-C)",noteworthy inhibitory activity
